Experimental data published in patent publication US20240287194A1, “Targeting Extracellular Matrix Proteins to Regulate NK Cell Function in Peripheral Tissues” (The General Hospital Corporation, priority 2021, published 2024).

How the values were obtained:
[1] = test system: B2m^−/− B16-F10 melanoma cells; assay: Subcutaneous (S.C.) B2m−/− B16 melanoma model; assay type: in vivo, mice; conditions: for proportions of tumor infiltrating Tregs, macrophages and MDSCs: B2m−/− B16 melanoma at the endpoint; for NK cell infiltration of the tumor parenchyma: B2m−/− B16 melanoma, day 3 post-S.C. injection; for T cell recruitment into the B2m−/− B16 tumors: CD3+ T cells, day 3 post S.C. injection; for IFNγ expression of tumor NK cells / PD-1 expression of tumor NK cells / granzyme B expression of tumor NK cells: NK cells from B2m−/− B16 melanoma, day 19-21 post-S.C. injection; for survival / B2m−/− melanoma growth in the skin: S.C. B2m−/− B16 in WT mice, losartan 60 mg/kg or DHB 40 mg/kg I.P. every day; for B2m−/− melanoma growth in the skin: control IgG vs anti-NK1.1
Procedure: All tumor experiments were performed in eight to twelve-week-old C57BL/6 female WT or Ncr1^iCre ROSA^mT-mG mice. For the S.C. tumor model, 2.5×10^5 B16-F10 WT or B2m^−/− cells were subcutaneously injected into the shaved flanks of mice. Tumor growth was measured every other day using a digital caliper starting from day seven. Tumor volume was calculated as follows: […]
To inhibit collagen deposition in and around the tumor, mice were administered with 60 mg/kg of Losartan Potassium (Fisher Scientific, catalog no. L02325G) or 40 mg/kg of 3,4-dihydroxybenzoic acid (DHB) (Sigma-Aldrich, catalog no. 37580) in 100 μL of sterile 1×PBS while the control mice were administered with the equivalent volume of sterile 1×PBS. These drugs were injected I.P. every day for the duration of the study starting the day of tumor inoculation.
For the collagenase/hyaluronidase experiment, 2.5×10^5 B16-F10 B2m^−/− cells were resuspended in 1×collagenase and hyaluronidase mix (Stemcell, catalog no. 07912) and were subcutaneously injected into the shaved flanks of mice. To deplete collagen within the tumor, mice were administered with 1×collagenase and hyaluronidase mix (Stemcell, catalog no. 07912) in 100 μL of sterile 1×PBS while control mice were administered with the equivalent volume of sterile 1×sPBS. These enzymes were injected via intratumoral (I.T.) route starting on the day of tumor inoculation (day 0), day 1, day 2, day 3, day 4 and then every other day (day 6, 8, 10, etc.) until the end of the study. Except for day 3 tumor harvest, mice were euthanized when a tumor reached 2 cm in diameter in accordance with IACUC protocols. For early time point tumor analysis, specific Ncr1^iCre, ROSA^mT-mG mice from PBS, Losartan and DHB group were euthanized on day 3 post tumor inoculation, the implanted tumor harvested and fixed in pre-chilled 95% ethanol overnight at 4° C. before subjecting them to subsequent processing.
Terminal subcutaneous tumors were excised with the skin and weighed before cutting in half. One half was placed in appropriate fixative while the other half was separated from the skin and chopped with scissors into ˜1 mm pieces. These were transferred to a 15 mL tube with 10 mL digest buffer (RPMI 1640 (Life Technologies, catalog no. 21870076), 200 U/mL Collagenase IV (Worthington Biochemical, Lakewood, NJ, USA)) and incubated for 2 hours at 37° C. with shaking. Following incubation, digested tumor was poured onto a […] strainer placed in a 50 mL tube. The 15 mL tube was rinsed with ˜3 mL of 1×PBS/2% FCS/5 mM EDTA and added to the digested sample. The tumor was mashed with a plunger through the […] strainer which was then rinsed ˜3 times with a small volume of 1×PBS/2% FCS/5 mM EDTA. The tumor-infiltrating CD45^+ immune cells were isolated by magnetic-based positive selection using CD45 microbeads (Miltenyi Biotec, catalog no. 130-052-301) according to the manufacturer's protocol. The stained cells were passed through the LS columns (Miltenyi Biotec, catalog no. 130-042-401) placed between magnets for isolation of immune cells. The isolated CD45^+ cells were centrifuged at 300 g for 5 minutes at 4° C. and resuspended in 2.4G2 blocking solution before flow cytometry staining.
Mice were I.P. injected with 500 μg/mouse of IgG isotype control (Southern Biotech, Birmingham, AL, USA, catalog no. 0107-01) or depleting anti-NK1.1 antibody (clone PK136, BioXcell, West Lebanon, NH, USA, catalog no. BE0036) two days before tumor cell injection and 250 μg/mouse every other day starting the day of the tumor cell injection. For depletion of NK or T cells (anti-CD4 antibody, clone GK1.5, BioXcell; anti-CD8a antibody, clone YTS 169.4, BioXcell) in a skin transplant setting, 500 μg/mouse of each depleting antibody were injected the day of the transplant and 250 μg at days indicated in FIG. S5E. […]

[2] = test system: Ly49H^+ splenic cNK cells; assay: Splenic cNK cell co-culture with m157-MEF in the presence of ECM proteins (CD107a, IFNγ flow cytometry); assay type: cell-based, mice; conditions: for altering NK cell functions (CD107a, IFNγ): co-culture with m157-MEF
Procedure: (§1) Single-cell suspensions from all samples were prepared by straining through a 70 μm filter. 2.4G2 supernatant treated cells were stained in 1×PBS/2% FCS/5 mM EDTA with the appropriate surface antibodies (Table 2) for 30 minutes at 4° C., washed and analyzed by flow cytometry. For intracellular staining, cells were fixed and permeabilized using True-Nuclear Transcription Buffer set (Biolegend, catalog no. 424401) according to the manufacturer's protocol then incubated with appropriate antibodies (Table 2) for 60 min at RT, washed and analyzed by flow cytometry. For in vitro signaling experiments, following the specified time points, cells were fixed with an equal volume of pre-warmed 1×aldehyde based fixation buffer (Biolegend, catalog no. 420801) for 20 min at RT. Fixed cells were permeabilized by drop-wise addition of chilled methanol-based solution True-Phos Perm Buffer (Biolegend, catalog no. 425401) while mixed on a vortex. Cells were stored in-20° C. and dark for 1-3 days before washing them two times with ˜3 mL of 1×PBS/2% FCS/5 mM EDTA. Cells were subsequently stained with appropriate antibodies against surface markers and specific phosphorylated signaling proteins (Table 2) for 60 min at RT, washed and analyzed by flow cytometry. Cells were assayed on a BD LSRFortessa X-20 flow cytometer (BD Bioscience, Billerica, MA, USA) and data were analyzed using FlowJo software Version 10 (Tree Star, Ashlad, OR, USA). NK cells in WT non-reporting mice were identified as CD3^− NK1.1^+NKp46^+.
(§2) For in vitro experiments in the presence of ECM components, Collagen I (Rat tail, Sigma, catalog no. 08-115), collagen III (Human placenta, Sigma, catalog no. C4407), collagen IV (Mouse, Sigma, catalog no. C0543), Elastin (Mouse lung, Sigma, catalog no. E6402), Laminin (Mouse, Thermo Fisher, catalog no. 23017015) and Fibronectin (Rat plasma, Sigma, catalog no. F0635) were diluted in 1×PBS and coated at 20 μ ENREF 45 g/cm^2 in a 24 well tissue culture plate for 30 minutes at RT with gentle shaking followed by overnight at 4° C. Spleens from Ncr1^iCre, ROSA^mT-mG, WT or Lair1^−/− mice were harvested as described above. Then, 5×10^6 splenocytes resuspended in RPMI 10% FBS/1% P/S/20 mM Glutamine were mixed with 20 μg of respective ECM protein per well and were incubated at RT for 10 minutes. Splenocytes and ECM mix were plated onto the ECM-coated well and were incubated at 37° C./5% CO2 for 2 hours (short ECM exposure) or 17 hours (long ECM exposure). At the end of the incubation, 1×10^5 MEF (WT or m157) cells were added to each well to obtain a 50:1 splenocyte:MEF ratio. For cell signaling experiments, hydrogen peroxide (H2O2) at a final concentration of 2.5 mM or 1×10^5 MEF-m157 cells were added to each well except in “0 min” wells which were unstimulated and fixed immediately. Splenocytes were stimulated with 2.5 mM H2O2 for 2 min and 5 min or were co-cultured with MEF-m157 for 30 min and 60 min (signaling) or 7 hours (CD107a and IFN[…]) at 37° C./5% CO2. Splenocytes and MEF in co-culture were supplemented with mIL-12 (10 ng/mL, Biolegend, catalog no. 577002), mIL-15 (1 ng/mL, Shenandoah Biotechnology, catalog no. 200-07) and hIL-2 (Biolegend, catalog no. 589104; only long ECM exposure) as well as for CD107a/IFN experiments. 1 μL of anti-CD107a-BV421 (1D4B, Biolegend, catalog no. 121618), 1×Brefeldin A (Biolegend, catalog no. 420601) and 1×Monensin (Biolegend, catalog no. 420701) were added. Following the co-culture, cells were washed with 1×PBS/2% FCS/5 mM EDTA and the pellet was resuspended in 2.4G2 blocking solution before flow cytometry staining.

splenic cNK cells = assay: Phospho-signaling in splenic cNK cells stimulated with H2O2 in the presence of ECM proteins; assay type: cell-based, mice
Procedure: as §1, §2

Which results are given for `O=C(O)c1ccc(O)c(O)c1` [DHB, 3,4-dihydroxybenzoic acid]?
proportions of tumor infiltrating Tregs, macrophages and MDSCs [1]: remained unaltered or increased; NK cell infiltration of the tumor parenchyma [1]: highly infiltrated the tumor parenchyma; T cell recruitment into the B2m−/− B16 tumors [1]: did not induce T cell recruitment; IFNγ expression of tumor NK cells [1]: markedly elevated expression; PD-1 expression of tumor NK cells [1]: markedly elevated expression; granzyme B expression of tumor NK cells [1]: markedly elevated expression; survival [1]: significant survival benefit; B2m−/− melanoma growth in the skin [1]: protected the mice from B2m^−/− melanoma growth in the skin in an NK cell-dependent manner

With `CCCCc1nc(Cl)c(CO)n1Cc1ccc(-c2ccccc2-c2nn[nH]n2)cc1` [losartan, Losartan Potassium] as the molecule, how does the “proportions of tumor infiltrating Tregs, macrophages and MDSCs” value [1] read?
The value was “remained unaltered or increased”.

What about the “NK cell infiltration of the tumor parenchyma” value [1] of the same molecule?
The value was “highly infiltrated the tumor parenchyma”.

And the “T cell recruitment into the B2m−/− B16 tumors” value [1]?
The value was “did not induce T cell recruitment”.

What about the “IFNγ expression of tumor NK cells” value [1] of the same molecule?
Its value is “markedly elevated expression”.

And the “PD-1 expression of tumor NK cells” value [1]?
Its value is “markedly elevated expression”.

What about the “granzyme B expression of tumor NK cells” value [1] of the same molecule?
Its value is “markedly elevated expression”.

And the survival [1]?
Its survival is “significant survival benefit”.

What about the “B2m−/− melanoma growth in the skin” value [1] of the same molecule?
The value was “protected the mice from B2m^−/− melanoma growth in the skin in an NK cell-dependent manner”.

With “collagen IV: collagen IV (Mouse, Sigma), epidermal basement membrane protein” as the molecule, how does the “altering NK cell functions (CD107a, IFNγ)” value (“altering NK cell functions” for short) ([2]; 9 and 24 hours) read?
The value was “played a minor role”.

With “fibronectin: Fibronectin (Rat plasma, Sigma), epidermal basement membrane protein” as the molecule, how does the “altering NK cell functions” value ([2]; 9 and 24 hours) read?
The value was “played a minor role”.

How did the “altering NK cell functions” value ([2]; 9 and 24 hours) turn out when “laminin: Laminin (Mouse, Thermo Fisher), epidermal basement membrane protein” was run?
Its value is “played a minor role”.

B1: elastin: Elastin (Mouse lung, Sigma), dermal ECM protein (protein, UniProt P54320 28-860, looked up)
Elastin: GGVPGAVPGGLPGGVPGGVYYPGAGIGGLGGGGGALGPGGKPPKPGAGLLGTFGAGPGGLGGAGPGAGLGAFPAGTFPGAGALVPGGAAGAAAAYKAAAKAGAGLGGVGGVPGGVGVGGVPGGVGVGGVPGGVGVGGVPGGVGGIGGIGGLGVSTGAVVPQVGAGIGAGGKPGKVPGVGLPGVYPGGVLPGTGARFPGVGVLPGVPTGTGVKAKAPGGGGAFAGIPGVGPFGGQQPGVPLGYPIKAPKLPGGYGLPYTNGKLPYGVAGAGGKAGYPTGTGVGSQAAAAAAKAAKYGAGGAGVLPGVGGGGIPGGAGAIPGIGGIAGAGTPAAAAAAKAAAKAAKYGAAGGLVPGGPGVRLPGAGIPGVGGIPGVGGIPGVGGPGIGGPGIVGGPGAVSPAAAAKAAAKAAKYGARGGVGIPTYGVGAGGFPGYGVGAGAGLGGASPAAAAAAAKAAKYGAGGAGALGGLVPGAVPGALPGAVPAVPGAGGVPGAGTPAAAAAAAAAKAAAKAGLGPGVGGVPGGVGVGGIPGGVGVGGVPGGVGPGGVTGIGAGPGGLGGAGSPAAAKSAAKAAAKAQYRAAAGLGAGVPGFGAGAGVPGFGAGAGVPGFGAGAGVPGFGAGAGVPGFGAGAVPGSLAASKAAKYGAAGGLGGPGGLGGPGGLGGPGGLGGAGVPGRVAGAAPPAAAAAAAKAAAKAAQYGLGGAGGLGAGGLGAGGLGAGGLGAGGLGAGGLGAGGLGAGGLGAGGGVSPAAAAKAAKYGAAGLGGVLGARPFPGGGVAARPGFGLSPIYPGGGAGGLGVGGKPPKPYGGALGALGYQGGGCFGKSCGRKRK
Which “pERK1/2 levels in NK cells” value (splenic cNK cells; H2O2 2.5 mM, 2 and 5 min) does the source give for B1 here?
The value was “markedly reduced”.

What about the “pPLCγ1 levels in NK cells” value (splenic cNK cells; H2O2 2.5 mM, 2 and 5 min) of the same molecule?
The value was “markedly reduced”.

And the “pSTAT3 in NK cells” value (splenic cNK cells; baseline and 2- and 5-minute exposure to H2O2)?
The value was “increased pSTAT3 at baseline”.

What about the “pSTAT5 in NK cells” value (splenic cNK cells; baseline and 2- and 5-minutes exposure to H2O2) of the same molecule?
The value was “highly induced”.

What about the “Ly49H+ cNK cell degranulation (CD107a)” value ([2]; 9 and 24 hours co-culture with m157-MEF, ECM coated 20 μg/cm2) of the same molecule?
Its value is “potently blocked”.

And the “IFNγ production by Ly49H+ cNK cells” value ([2]; exposed to m157-MEF, 9 and 24 hours)?
Its value is “suppressed”.
